Compound | melting point [°C]
COc1ccn2nc(-c3ccccc3)c(-c3ccc(=O)n([C@H]4CCOC4)n3)c2c1 [Example 120, 5-Methoxy-3-[3-oxo-2-((3S)-tetrahydrofuran-3-yl)-2,3-dihydropyridazin-6-yl]-2-phenylpyrazolo[1,5-a]pyridine] | 194 to 195
CC(C)n1nc(-c2c(-c3ccccc3)nn3ccc(OCc4ccccn4)cc23)ccc1=O [Example 12, 5-(2-Pyridinylmethoxy)-3-(3-oxo-2-isopropyl-2,3-dihydropyridazin-6-yl)-2-phenylpyrazolo[1,5-a]pyridine] | 150 to 151
CC(C)n1nc(-c2c(-c3ccccc3)nn3ccc(OCc4ccncc4)cc23)ccc1=O [Example 19, 5-(4-Pyridinylmethoxy)-3-(3-oxo-2-isopropyl-2,3-dihydropyridazin-6-yl)-2-phenylpyrazolo[1,5-a]pyridine] | 218 to 219.5
CC(C)n1nc(-c2c(-c3ccccc3)nn3ccc(C(=O)NCCOc4ccccc4)cc23)ccc1=O [Example 92, N-(2-Phenoxyethyl)-3-(3-oxo-2-isopropyl-2,3-dihydropyridazin-6-yl)-2-phenylpyrazolo[1,5-a]pyridine-5-carboxamide] | 156 to 157
COc1ccn2nc(-c3ccccc3)c(-c3ccc(=O)n(C4CCOCC4)n3)c2c1 [Example 124, 5-Methoxy-3-[3-oxo-2-(tetrahydropyran-4-yl)-2,3-dihydropyridazin-6-yl]-2-phenylpyrazolo[1,5-a]pyridine] | 224 to 225
CC(C)n1nc(-c2c(-c3ccccc3)nn3ccc(C(=O)NCc4ccccn4)cc23)ccc1=O [Example 144, N-(2-Pyridinylmethyl)-3-(3-oxo-2-isopropyl-2,3-dihydropyridazin-6-yl)-2-phenylpyrazolo[1,5-a]pyridine-5-carboxamide] | 193 to 194
CC(C)n1nc(-c2c(-c3ccccc3)nn3ccc(Oc4ccc([N+](=O)[O-])cn4)cc23)ccc1=O [Example 48, 5-[(5-Nitro-2-pyridinyl)oxy]-3-(3-oxo-2-isopropyl-2,3-dihydropyridazin-6-yl)-2-phenylpyrazolo[1,5-a]pyridine] | 182 to 183.5
COc1ccn2nc(-c3ccccc3)c(-c3ccc(=O)n(C4CCCN(C)C4)n3)c2c1 (stereo not shown) [Example 123, 5-Methoxy-3-[3-oxo-2-(1-methylpiperidin-3-yl)-2,3-dihydropyridazin-6-yl]-2-phenylpyrazolo[1,5-a]pyridine] | 179 to 180
CC(C)n1nc(-c2c(-c3ccccc3)nn3ccc(NC(=O)c4ccccc4)cc23)ccc1=O [Example 148, 5-Benzoylamino-3-(3-oxo-2-isopropyl-2,3-dihydropyridazin-6-yl)-2-phenylpyrazolo[1,5-a]pyridine] | 266 to 267
COc1ccn2nc(-c3ccc(F)cc3)c(-c3ccc(=O)n(C(C)C)n3)c2c1 [Example 129, 5-Methoxy-3-(3-oxo-2-isopropyl-2,3-dihydropyridazin-6-yl)-2-(4-fluorophenyl)pyrazolo[1,5-a]pyridine] | 176 to 177
CC(C)n1nc(-c2c(-c3ccccc3)nn3ccc(OCC(=O)Nc4ccccc4)cc23)ccc1=O [Example 44, 2-{[3-(3-Oxo-2-isopropyl-2,3-dihydropyridazin-6-yl)-2-phenylpyrazolo[1,5-a]pyridin-5-yl]oxy}-N-phenylacetamide] | 208 to 209
COc1ccn2nc(-c3ccccc3)c(-c3ccc(=O)n([C@@H]4CCOC4)n3)c2c1 [Example 119, 5-Methoxy-3-[3-oxo-2-((3R)-tetrahydrofuran-3-yl)-2,3-dihydropyridazin-6-yl]-2-phenylpyrazolo[1,5-a]pyridine] | 194 to 195
COc1ccn2nc(-c3ccccc3)c(-c3ccc(=O)[nH]n3)c2c1 [Example 1, 5-methoxy-3-(3-oxo-2,3-dihydropyridazin-6-yl)-2-phenylpyrazolo[1,5-a]-pyridine] | 245.5 to 247
CC(C)n1nc(-c2c(-c3ccccc3)nn3ccc(OCc4cccnc4)cc23)ccc1=O [Example 20, 5-(3-Pyridinylmethoxy)-3-(3-oxo-2-isopropyl-2,3-dihydropyridazin-6-yl)-2-phenylpyrazolo[1,5-a]pyridine] | 145 to 146
COc1ccc(Oc2ccn3nc(-c4ccccc4)c(-c4ccc(=O)n(C(C)C)n4)c3c2)nc1 [Example 47, 5-[(5-Methoxy-2-pyridinyl)oxy]-3-(3-oxo-2-isopropyl-2,3-dihydropyridazin-6-yl)-2-phenylpyrazolo[1,5-a]pyridine] | 148 to 150

Next, values leading:

melting point [°C] | Compound
154 to 155 | COc1ccn2nc(-c3ccccc3)c(-c3ccc(=O)n(C4CCN(C)CC4)n3)c2c1 [Example 122, 5-methoxy-3-[3-oxo-2-(1-methylpiperidin-4-yl)-2,3-dihydropyridazin-6-yl]-2-phenylpyrazolo[1,5-a]pyridine]
170 to 171.5 | CC(C)n1nc(-c2c(-c3ccccc3)nn3ccc(OCC(=O)NC4CCCCC4)cc23)ccc1=O [Example 63, N-Cyclohexyl-2-{[3-(3-oxo-2-isopropyl-2,3-dihydropyridazin-6-yl)-2-phenylpyrazolo[1,5-a]pyridin-5-yl]oxy}acetamide]
266 to 267 | CC(C)n1nc(-c2c(-c3ccccc3)nn3ccc(N4CCCC4=O)cc23)ccc1=O [Example 153, 5-(2-oxo-1-pyrrolidinyl)-3-(3-oxo-2-isopropyl-2,3-dihydropyridazin-6-yl)-2-phenylpyrazolo [1,5-a]pyridine]
157 to 158 | CCN(CC)C(=O)c1ccn2nc(-c3ccccc3)c(-c3ccc(=O)n(C(C)C)n3)c2c1 [Example 85, N,N-Diethyl-3-(3-oxo-2-isopropyl-2,3-dihydropyridazin-6-yl)-2-phenylpyrazolo[1,5-a]pyridine-5-carboxamide]
163 to 164 | CC(C)n1nc(-c2c(-c3ccccc3)nn3ccc(N4CCN(C(=O)OC(C)(C)C)CC4)cc23)ccc1=O [Example 104, tert-Butyl 4-[3-(3-oxo-2-isopropyl-2,3-dihydropyridazin-6-yl)-2-phenylpyrazolo[1,5-a]pyridin-5-yl]-1-piperazinecarboxylate]
177 to 178 | COC1CCN(c2ccn3nc(-c4ccccc4)c(-c4ccc(=O)n(C(C)C)n4)c3c2)CC1 [Example 106, 5-(4-methoxy-1-piperidinyl)-3-(3-oxo-2-isopropyl-2,3-dihydropyridazin-6-yl)-2-phenylpyrazolo[1,5-a]pyridine]
159 to 160 | CC(C)n1nc(-c2c(-c3ccccc3)nn3ccc(OCCN4CC4)cc23)ccc1=O
218.5 to 219.5 | CC(C)n1nc(-c2c(-c3ccccc3)nn3ccc(Oc4ccncc4)cc23)ccc1=O [Example 35, 5-(4-Pyridinyloxy)-3-(3-oxo-2-isopropyl-2,3-dihydropyridazin-6-yl)-2-phenylpyrazolo[1,5-a]pyridine]
157 to 158 | CC(C)n1nc(-c2c(-c3ccccc3)nn3ccc(C(=O)NCCN(C)C)cc23)ccc1=O [Example 76, N-[2-(Dimethylamino)ethyl]-3-(3-oxo-2-isopropyl-2,3-dihydropyridazin-6-yl)-2-phenylpyrazolo[1,5-a]pyridine-5-carboxamide]
221 to 222 | CC(C)n1nc(-c2c(-c3ccccc3)nn3ccc(N4CCN(c5ccccn5)CC4)cc23)ccc1=O [Example 102, 5-[4-(2-Pyridinyl)-1-piperazinyl]-3-(3-oxo-2-isopropyl-2,3-dihydropyridazin-6-yl)-2-phenylpyrazolo[1,5-a]pyridine]
160 to 161 | CC(C)n1nc(-c2c(-c3ccccc3)nn3ccc(N4CCN(C(=O)N(C)C)CC4)cc23)ccc1=O [Example 109, 4-[3-(3-oxo-2-isopropyl-2,3-dihydropyridazin-6-yl)-2-phenylpyrazolo[1,5-a]pyridin-5-yl]-N,N-dimethyl-1-piperazinecarboxamide]
148 to 149 | CC(=O)N1CCN(c2ccn3nc(-c4ccccc4)c(-c4ccc(=O)n(C(C)C)n4)c3c2)CC1 [Example 113, 5-(4-Acetyl-1-piperazinyl)-3-(3-oxo-2-isopropyl-2,3-dihydropyridazin-6-yl)-2-phenylpyrazolo[1,5-a]pyridine]
206 to 207 | COC(=O)N1CCN(c2ccn3nc(-c4ccccc4)c(-c4ccc(=O)n(C(C)C)n4)c3c2)CC1 [Example 108, methyl 4-[3-(3-oxo-2-isopropyl-2,3-dihydropyridazin-6-yl)-2-phenylpyrazolo[1,5-a]pyridin-5-yl]-1-piperazinecarboxylate]
213 to 214 | COC(=O)Nc1ccn2nc(-c3ccccc3)c(-c3ccc(=O)n(C(C)C)n3)c2c1 [Example 151, Methyl 3-(3-oxo-2-isopropyl-2,3-dihydropyridazin-6-yl)-2-phenylpyrazolo[1,5-a]pyridin-5-ylcarbamate]
159.5 to 160.5 | CC(C)n1nc(-c2c(-c3ccccc3)nn3ccc(OCCC4CCCC4)cc23)ccc1=O [Example 33, 5-(2-cyclopentylethoxy)-3-(3-oxo-2-isopropyl-2,3-dihydropyridazin-6-yl)-2-phenylpyrazolo[1,5-a]pyridine]
> 240 | CC(C)n1nc(-c2c(-c3ccccc3)nn3ccc(N4CCN(c5ccccc5)CC4)cc23)ccc1=O [Example 99, 5-(4-Phenyl-1-piperazinyl)-3-(3-oxo-2-isopropyl-2,3-dihydropyridazin-6-yl)-2-phenylpyrazolo[1,5-a]pyridine]
186 to 187 | COC(=O)c1ccn2nc(-c3ccccc3)c(-c3ccc(=O)n(C(C)C)n3)c2c1 [Example 69, methyl 3-(3-oxo-2-isopropyl-2,3-dihydropyridazin-6-yl)-2-phenylpyrazolo[1,5-a]pyridine-5-carboxylate]
203 to 204 | CC(C)n1nc(-c2c(-c3ccccc3)nn3ccc(N4CCNCC4)cc23)ccc1=O [Example 107, 5-(1-piperazinyl)-3-(3-oxo-2-isopropyl-2,3-dihydropyridazin-6-yl)-2-phenylpyrazolo[1,5-a]pyridine]
176 to 179 | CC(C)n1nc(-c2c(-c3ccccc3)nn3ccc(OC4CCN(C(=O)OC(C)(C)C)CC4)cc23)ccc1=O [Example 29, tert-Butyl 4-{[3-(3-oxo-2-isopropyl-2,3-dihydropyridazin-6-yl)-2-phenylpyrazolo[1,5-a]pyridin-5-yl]oxy}-1-piperidinecarboxylate]

Source: US20040110763A1, “Pyrazolopyridine compound and pharmaceutical use thereof” (priority 2000, published 2004)
